Three molecules from ChEMBL document CHEMBL3044676, “Effect of Antibiotics on Formation of Aerial Mycelium and Production of Phytotoxins in Streptomyces spp” (2003) can be followed below.

The test system of assay [1] is Streptomyces acidiscabies. In words: Antimicrobial activity against Streptomyces acidiscabies ATCC 4900315 assessed as inhibition of aerial mycelial growth at 4 ug/disk after 5 days by paper disk method. To be noted: for zone of inhibition at 4 µg/disc: ATCC 4900315, 120 h, read-out: DIZ. It is filed as functional.
Assay [2] deals with Streptomyces scabiei. Put plainly: Antimicrobial activity against Streptomyces scabiei ATCC 4917314 assessed as inhibition of aerial mycelial growth at 0.04 ug/disk after 5 days by paper disk method. It is filed as functional. The settings on record: for zone of inhibition at 0.04 µg/disc: ATCC 4917314, 120 h, read-out: DIZ.
For assay [3], the system named is Streptomyces scabiei. Put plainly: Reduction in concanamycins A and B production in Streptomyces scabiei ATCC 4917314 at 1.2 ug/ml after 5 days relative to untreated control. On the set-up: scale not given: the % may be the effect or the level left. It is filed as functional.
The subject of assay [4] is Streptomyces acidiscabies. Put plainly: Reduction in concanamycins A and B production in Streptomyces acidiscabies ATCC 4900315 at 1.5 ug/ml after 5 days relative to untreated control. It is filed as functional, organism-based.
Assay [5] deals with Streptomyces scabiei. Put plainly: Antimicrobial activity against Streptomyces scabiei ATCC 4917314 assessed as inhibition of aerial mycelial growth at 4 ug/disk after 5 days by paper disk method. It is filed as functional. The settings on record: ATCC 4917314, 120 h, read-out: DIZ.
For assay [6], the system named is Streptomyces alboniger. Put plainly: Antimicrobial activity against Streptomyces alboniger IFO 12738 assessed as inhibition of aerial mycelial growth at 0.4 ug/disk after 5 days by paper disk method. It is filed as functional.
The test system of assay [7] is Streptomyces scabiei. Put plainly: Antimicrobial activity against Streptomyces scabiei ATCC 4917314 assessed as mycelial weigh change at 1.2 ug/ml after 5 days relative to untreated control. It is filed as functional.
Assay [8] has as its system Streptomyces acidiscabies. In words: Antimicrobial activity against Streptomyces acidiscabies ATCC 4900315 assessed as mycelial weigh change at 1.5 ug/ml after 5 days relative to untreated control. It is filed as functional.
Assay [9] concerns Streptomyces acidiscabies. In words: Antimicrobial activity against Streptomyces acidiscabies ATCC 4900315 assessed as inhibition of growth at 4 ug/disk after 5 days by paper disk method. The settings on record: ATCC 4900315, 120 h, read-out: DIZ. It is filed as functional.
In assay [10] the test system is Streptomyces acidiscabies. In words: Antimicrobial activity against Streptomyces acidiscabies ATCC 4900315 assessed as inhibition of aerial mycelial growth at 0.4 ug/disk after 5 days by paper disk method. To be noted: for zone of inhibition at 0.4 µg/disc: ATCC 4900315, 120 h, read-out: DIZ. It is filed as functional.
The test system of assay [11] is Streptomyces alboniger. In words: Antimicrobial activity against Streptomyces alboniger IFO 12738 assessed as inhibition of aerial mycelial growth at 4 ug/disk after 5 days by paper disk method. It is filed as functional.
Assay [12] deals with Streptomyces scabiei. Put plainly: Antimicrobial activity against Streptomyces scabiei ATCC 4917314 assessed as inhibition of growth at 4 ug/disk after 5 days by paper disk method. It is filed as functional. The settings on record: ATCC 4917314, 120 h, read-out: DIZ.
For assay [13], the system named is Streptomyces alboniger. In words: Antimicrobial activity against Streptomyces alboniger IFO 12738 assessed as inhibition of aerial mycelial growth at 0.04 ug/disk after 5 days by paper disk method. It is filed as functional, organism-based.
In assay [14] the test system is Streptomyces acidiscabies. In words: Reduction in thaxtomin A production in Streptomyces acidiscabies ATCC 4900315 at 1.5 ug/ml after 5 days relative to untreated control. It is filed as functional. Also on record: scale not given: the % may be the effect or the level left.
The subject of assay [15] is Streptomyces scabiei. Put plainly: Reduction in thaxtomin A production in Streptomyces scabiei ATCC 4917314 at 1.2 ug/ml after 5 days relative to untreated control. Also on record: scale not given: the % may be the effect or the level left. It is filed as functional.
The test system of assay [16] is Streptomyces scabiei. In words: Antimicrobial activity against Streptomyces scabiei ATCC 4917314 assessed as inhibition of aerial mycelial growth at 0.40 ug/disk after 5 days by paper disk method. To be noted: ATCC 4917314, 120 h, read-out: DIZ. It is filed as functional.
Assay [17] deals with Streptomyces acidiscabies. In words: Antimicrobial activity against Streptomyces acidiscabies ATCC 4900315 assessed as inhibition of aerial mycelial growth at 0.04 ug/disk after 5 days by paper disk method. It is filed as functional.
The test system of assay [18] is Streptomyces acidiscabies. Put plainly: Antimicrobial activity against Streptomyces acidiscabies ATCC 4900315 assessed as inhibition of growth at 0.4 ug/disk after 5 days by paper disk method. It is filed as functional. The settings on record: ATCC 4900315, 120 h, read-out: DIZ.
The test system of assay [19] is Streptomyces alboniger. In words: Antimicrobial activity against Streptomyces alboniger IFO 12738 assessed as inhibition of growth at 4 ug/disk after 5 days by paper disk method. It is filed as functional. The settings on record: IFO 12738, 120 h, read-out: DIZ.
For assay [20], the system named is Streptomyces acidiscabies. In words: Reduction in thaxtomin A production in Streptomyces acidiscabies ATCC 4900315 at 0.45 ug/ml after 5 days relative to untreated control. It is filed as functional. Also on record: scale not given: the % may be the effect or the level left.
The test system of assay [21] is Streptomyces scabiei. Put plainly: Antimicrobial activity against Streptomyces scabiei ATCC 4917314 assessed as inhibition of growth at 0.4 ug/disk after 5 days by paper disk method. It is filed as functional.
For assay [22], the system named is Streptomyces acidiscabies. In words: Antimicrobial activity against Streptomyces acidiscabies ATCC 4900315 assessed as mycelial weigh change at 0.45 ug/ml after 5 days relative to untreated control. It is filed as functional.
Assay [23] has as its system Streptomyces scabiei. Put plainly: Reduction in concanamycins A and B production in Streptomyces scabiei ATCC 4917314 at 3.6 ug/ml after 5 days relative to untreated control. It is filed as functional. On the set-up: scale not given: the % may be the effect or the level left.
Assay [24] deals with Streptomyces acidiscabies. Put plainly: Reduction in concanamycins A and B production in Streptomyces acidiscabies ATCC 4900315 at 0.45 ug/ml after 5 days relative to untreated control. It is filed as functional, organism-based.
Assay [25] has as its system Streptomyces scabiei. In words: Reduction in thaxtomin A production in Streptomyces scabiei ATCC 4917314 at 3.6 ug/ml after 5 days relative to untreated control. It is filed as functional. On the set-up: scale not given: the % may be the effect or the level left.
Assay [26] deals with Streptomyces scabiei. Put plainly: Antimicrobial activity against Streptomyces scabiei ATCC 4917314 assessed as mycelial weigh change at 3.6 ug/ml after 5 days relative to untreated control. It is filed as functional.

Activity calls are given as the source filed them. The rule behind the calls is not given here. A value given as a limit tells only on which side of the number the result lay.

For `CN(C)[C@@H]1C(O)=C(C(N)=O)C(=O)[C@@]2(O)C(O)=C3C(=O)c4c(O)ccc(Cl)c4[C@@](C)(O)[C@H]3C[C@@H]12` [CHLORTETRACYCLINE], the zone of inhibition at 4 µg/disc in assay [1] is 35 mm; in [5], 27 mm; in assay [9], 16 mm; in assay [12], 19 mm. For the same molecule, the zone of inhibition at 0.04 µg/disc in assay [2] is 11 mm; in [17] (ATCC 4900315, 120 h, read-out: DIZ), 11 mm. Besides, the Activity is on record as 0.1% in assay [3]; “Below limit of detection” in assay [4]; 2.1% in assay [7]; 6.8% in assay [8]; below 10% in assay [14]; 0.6% in assay [15]. Also, the “diameter of the inhibition zone (DIZ)” value in [6], in assay [11] and in [13] was “inactive” each time. The zone of inhibition at 0.4 µg/disc in assay [10] is 19 mm; in assay [16], 20 mm.

On to `NC[C@H]1O[C@H](O[C@H]2[C@H](O)[C@@H](O[C@H]3O[C@H](CO)[C@@H](O)[C@H](N)[C@H]3O)[C@H](N)C[C@@H]2N)[C@H](O)[C@@H](O)[C@@H]1O` [KANAMYCIN], for which the zone of inhibition at 0.4 µg/disc in [18] amounted to 12 mm; in assay [16], 10 mm. Also, the “diameter of the inhibition zone (DIZ)” value in [1], in [2], in assay [6], in assay [10], in assay [11] and in assay [13] was “inactive” in each case. In addition, in assay [17], the “diameter of the inhibition zone (DIZ)” value was “inactive”. For the same molecule, the zone of inhibition at 4 µg/disc in assay [5] came to 18 mm; in assay [9], 18 mm; in [12] it was 13 mm; in assay [19], 14 mm.

Take `CN[C@@H]1[C@H](O)[C@H](NC)[C@H]2O[C@@]3(O)C(=O)C[C@@H](C)O[C@H]3O[C@@H]2[C@H]1O` [SPECTINOMYCIN]: the zone of inhibition at 4 µg/disc in [1] was 31 mm; in assay [5], 19 mm; in assay [11] (IFO 12738, 120 h, read-out: DIZ), 35 mm. Further, the zone of inhibition at 0.04 µg/disc in assay [2] was determined as 27 mm. Further, the Activity is recorded as 59% in assay [20]; 8.31% in assay [22]; 1.1% in assay [23]; “Below limit of detection” in assay [24]; 0.8% in assay [25]; 5.01% in [26]. The “diameter of the inhibition zone (DIZ)” value in assay [6], in assay [21], in assay [13] and in assay [17] was “inactive” in each case. Besides, the results for the zone of inhibition at 0.4 µg/disc in assay [10] and in assay [16] were 20 mm and 11 mm, respectively.
